The record followed here is patent US10946074B2, “GLP-1 derivatives and uses thereof” (Novo Nordisk A/S, priority 2016, dated 2021).

Broadly, the IC50 is the midpoint of a concentration-inhibition curve.

Starred links: 1 amine or outer side, 2 acyl side, 3 side chain; linkers in the order of their positions; H or OH if unused. Residues, ends and D or L forms follow the SMILES beside them. Groups on a side chain read outwards from the residue. *: point of attachment. Undecanoyl(11-OPh(4-COOH)) = O=C(O)c1ccc(OCCCCCCCCCCC(=O)*)cc1; Decanoyl(10-O(3-COOH-Ph)) = O=C(O)c1cccc(OCCCCCCCCCC(=O)*)c1; γGlu = O=C(O)[C@H](CCC(=O)[*:2])N[*:1]; AEEA = NCCOCCOCC(=O)O

One experiment deals with T1, human GLP-1 receptor (Homo sapiens, UniProt P43220).
T1 construct: expressed in transfected cells; host or cells: membranes of BHK cells (parent BHKTS13), clone FCW467-12A
T1 sequence (P43220 24-463): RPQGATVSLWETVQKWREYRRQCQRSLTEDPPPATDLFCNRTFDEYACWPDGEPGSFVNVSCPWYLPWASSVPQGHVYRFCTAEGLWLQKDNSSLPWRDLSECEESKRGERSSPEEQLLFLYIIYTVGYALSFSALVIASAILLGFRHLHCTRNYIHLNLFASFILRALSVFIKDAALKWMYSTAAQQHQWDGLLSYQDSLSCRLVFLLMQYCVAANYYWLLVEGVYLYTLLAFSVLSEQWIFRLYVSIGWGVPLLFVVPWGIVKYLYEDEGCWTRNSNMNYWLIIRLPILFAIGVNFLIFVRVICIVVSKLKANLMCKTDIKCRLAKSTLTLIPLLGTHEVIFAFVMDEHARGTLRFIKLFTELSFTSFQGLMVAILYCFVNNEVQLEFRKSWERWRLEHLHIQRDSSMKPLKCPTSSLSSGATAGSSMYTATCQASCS
In words: GLP-1 receptor binding, competitive binding assay with 125I-GLP-1 on isolated membranes (SPA). Conditions: GLP-1 receptor binding High HSA IC50 (nM), high HSA (2.0% (w/v) final assay concentration).
Protocol: The receptor binding is reported as the concentration at which half of the labelled ligand is displaced from the receptor, the IC50 value.
Buffer 1 consisted of 20 mM Na-HEPES plus 10 mM EDTA and pH was adjusted to 7.4. Buffer 2 consisted of 20 mM Na-HEPES plus 0.1 mM EDTA and pH was adjusted to 7.4. Assay buffer consisted of 50 mM HEPES supplemented with 5 mM EGTA, 5 mM MgCl2, 0.005% w/v Tween 20 and pH was adjusted to 7.4. An 8% albumin stock consisted of HSA dissolved at 8% (w/v) in assay buffer. An 0.02% albumin stock consisted of HSA dissolved at 0.02% (w/v) in assay buffer.
To make a membrane preparation the cells were grown to approximately 80% confluence. The cells were washed twice in phosphate-buffered saline and harvested. The cells were pelleted using a brief centrifugation and the cell pellet was kept on ice. The cell pellet was homogenised with ULTRA-THURRAX™ dispersing instrument for 20-30 seconds in a suitable amount of buffer 1 (e.g., 10 ml). The homogenate was centrifuged for 15 minutes. The pellet was re-suspended (homogenised) in 10 ml buffer 2 and centrifuged. This step was repeated once more. The resulting pellet was re-suspended in buffer 2 and the protein concentration was determined. The membranes were aliquoted and stored at minus 80° C.
For the receptor binding assay in the presence of low HSA (0.005% (w/v)) 50 μl of the assay buffer was added to each well of an assay plate. Assay continued with step 3.
For the receptor binding assay in the presence of high HSA (2% (w/v)) 50 μl of the 8% (w/v) albumin stock was added to each well of an assay plate. Assay continued with step 3.
Cell membrane aliquots were thawed and diluted to their working concentration. Fifty μl were added to each well in the assay plate.
WGA SPA beads were suspended in assay buffer at 20 mg/ml. The suspension was diluted to 10 mg/ml in assay buffer just prior to addition to the assay plate. Fifty μl were added to each well in the assay plate.
A 25 μl aliquot was reserved for measuring total counts/well.
The assay plate was incubated for 2 h at 30° C.
The assay plate was centrifuged for 10 min.
The assay plate was read in a Packard TopCount NXT instrument.
Individual replicates were analysed using non-linear regression in GraphPad Prism. IC50 values were calculated by the software and reported in nM. A minimum of two replicates was measured for each sample. The reported values are averages of all of the measured values for each compound.
`CC[C@H](C)[C@H](NC(=O)[C@H](Cc1ccccc1)NC(=O)[C@H](CCC(=O)O)NC(=O)[C@H](CCCNC(=N)N)NC(=O)[C@H](C)NC(=O)[C@H](C)NC(=O)[C@H](CCC(N)=O)NC(=O)[C@H](CCC(=O)O)NC(=O)[C@H](CCC(=O)O)NC(=O)[C@H](CC(C)C)NC(=O)[C@H](Cc1ccc(O)cc1)NC(=O)[C@H](CO)NC(=O)[C@H](CO)NC(=O)[C@@H](NC(=O)[C@H](CC(=O)O)NC(=O)[C@H](CO)NC(=O)[C@@H](NC(=O)[C@H](Cc1ccccc1)NC(=O)[C@@H](NC(=O)CNC(=O)[C@H](CCC(=O)O)NC(=O)C(C)(C)NC(=O)[C@@H](N)Cc1c[nH]cn1)[C@@H](C)O)[C@@H](C)O)C(C)C)C(=O)N[C@@H](C)C(=O)N[C@@H](Cc1c[nH]c2ccccc12)C(=O)N[C@@H](CC(C)C)C(=O)N[C@H](C(=O)N[C@@H](CCCNC(=N)N)C(=O)NCC(=O)N[C@@H](CCCCNC(=O)COCCOCCNC(=O)COCCOCCNC(=O)CC[C@H](NC(=O)CCCCCCCCCCOc1ccc(C(=O)O)cc1)C(=O)O)C(=O)N[C@@H](CCCCNC(=O)COCCOCCNC(=O)COCCOCCNC(=O)CC[C@H](NC(=O)CCCCCCCCCCOc1ccc(C(=O)O)cc1)C(=O)O)C(=O)O)C(C)C` [Comparative 8A] displayed an IC50 of 110 nM. Same read-out and setting: under `CC[C@H](C)[C@H](NC(=O)[C@H](Cc1ccccc1)NC(=O)[C@H](CCC(=O)O)NC(=O)[C@H](CCCNC(=N)N)NC(=O)[C@H](C)NC(=O)[C@H](C)NC(=O)[C@H](CCC(N)=O)NC(=O)[C@H](CCC(=O)O)NC(=O)[C@H](CCC(=O)O)NC(=O)[C@H](CC(C)C)NC(=O)[C@H](Cc1ccc(O)cc1)NC(=O)[C@H](CO)NC(=O)[C@H](CO)NC(=O)[C@@H](NC(=O)[C@H](CC(=O)O)NC(=O)[C@H](CO)NC(=O)[C@@H](NC(=O)[C@H](Cc1ccccc1)NC(=O)[C@@H](NC(=O)CNC(=O)[C@H](CCC(=O)O)NC(=O)[C@H](Cc1c[nH]c2ccccc12)NC(=O)[C@@H](N)Cc1c[nH]cn1)[C@@H](C)O)[C@@H](C)O)C(C)C)C(=O)N[C@@H](C)C(=O)N[C@@H](Cc1c[nH]c2ccccc12)C(=O)N[C@@H](CC(C)C)C(=O)N[C@H](C(=O)N[C@@H](CCCNC(=N)N)C(=O)NCC(=O)N[C@@H](CCCCNC(=O)COCCOCCNC(=O)COCCOCCNC(=O)CC[C@H](NC(=O)CCCCCCCCCOc1cccc(C(=O)O)c1)C(=O)O)C(=O)N[C@@H](CCCCNC(=O)COCCOCCNC(=O)COCCOCCNC(=O)CC[C@H](NC(=O)CCCCCCCCCOc1cccc(C(=O)O)c1)C(=O)O)C(=O)O)C(C)C` [Example 1, N{Epsilon-36}-[2-[2-[2-[[2-[2-[2-[[(4S)-4-carboxy-4-[10-(3-carboxyphenoxy)decanoylamino]butanoyl]amino]ethoxy]ethoxy]acetyl]amino]ethoxy]ethoxy]acetyl],N{Epsilon-37}-[2-[2-[2-[[2-[2-[2-[[(4S)-4-carboxy-4-[10-(3-carboxyphenoxy)decanoylamino]butanoyl]amino]ethoxy]ethoxy]acetyl]amino]ethoxy]ethoxy]acetyl]-[Trp8,Glu22,Arg26,Arg34,Lys36,Lys37]-GLP-1-(7-37)-peptide] (H-HWEGTFTSDVSSYLEEQAAREFIAWLVRGK([AEEA-AEEA-γGlu-Decanoyl(10-O(3-COOH-Ph))])K([AEEA-AEEA-γGlu-Decanoyl(10-O(3-COOH-Ph))])-OH) stands 410 nM; under `CC[C@H](C)[C@H](NC(=O)[C@H](Cc1ccccc1)NC(=O)[C@H](CCC(=O)O)NC(=O)[C@H](CCCNC(=N)N)NC(=O)[C@H](C)NC(=O)[C@H](C)NC(=O)[C@H](CCC(N)=O)NC(=O)[C@H](CCC(=O)O)NC(=O)[C@H](CCC(=O)O)NC(=O)[C@H](CC(C)C)NC(=O)[C@H](Cc1ccc(O)cc1)NC(=O)[C@H](CO)NC(=O)[C@H](CO)NC(=O)[C@@H](NC(=O)[C@H](CC(=O)O)NC(=O)[C@H](CO)NC(=O)[C@@H](NC(=O)[C@H](Cc1ccccc1)NC(=O)[C@@H](NC(=O)CNC(=O)[C@H](CCC(=O)O)NC(=O)[C@H](Cc1c[nH]c2ccccc12)NC(=O)[C@@H](N)Cc1c[nH]cn1)[C@@H](C)O)[C@@H](C)O)C(C)C)C(=O)N[C@@H](C)C(=O)N[C@@H](Cc1c[nH]c2ccccc12)C(=O)N[C@@H](CC(C)C)C(=O)N[C@H](C(=O)N[C@@H](CCCNC(=N)N)C(=O)NCC(=O)N[C@@H](CCCCNC(=O)COCCOCCNC(=O)COCCOCCNC(=O)CC[C@H](NC(=O)CCCCCCCCCCOc1ccc(C(=O)O)cc1)C(=O)O)C(=O)N[C@@H](CCCCNC(=O)COCCOCCNC(=O)COCCOCCNC(=O)CC[C@H](NC(=O)CCCCCCCCCCOc1ccc(C(=O)O)cc1)C(=O)O)C(=O)O)C(C)C` [Example 8, N{Epsilon-36}-[2-[2-[2-[[2-[2-[2-[[(4S)-4-carboxy-4-[11-(4-carboxyphenoxy)undecanoylamino]butanoyl]amino]ethoxy]ethoxy]acetyl]amino]ethoxy]ethoxy]acetyl],N{Epsilon-37}-[2-[2-[2-[[2-[2-[2-[[(4S)-4-carboxy-4-[11-(4-carboxyphenoxy)undecanoylamino]butanoyl]amino]ethoxy]ethoxy]acetyl]amino]ethoxy]ethoxy]acetyl]-[Trp8,Glu22,Arg26,Arg34,Lys36,Lys37]-GLP-1-(7-37)-peptide] (H-HWEGTFTSDVSSYLEEQAAREFIAWLVRGK([AEEA-AEEA-γGlu-Undecanoyl(11-OPh(4-COOH))])K([AEEA-AEEA-γGlu-Undecanoyl(11-OPh(4-COOH))])-OH; N-terminus and C-terminus assumed), 170 nM.

The same experiment, now with this note: GLP-1 receptor binding Low HSA IC50 (nM), low HSA (max. 0.001% (w/v) final assay concentration).
The molecule `CC[C@H](C)[C@H](NC(=O)[C@H](Cc1ccccc1)NC(=O)[C@H](CCC(=O)O)NC(=O)[C@H](CCCNC(=N)N)NC(=O)[C@H](C)NC(=O)[C@H](C)NC(=O)[C@H](CCC(N)=O)NC(=O)[C@H](CCC(=O)O)NC(=O)[C@H](CCC(=O)O)NC(=O)[C@H](CC(C)C)NC(=O)[C@H](Cc1ccc(O)cc1)NC(=O)[C@H](CO)NC(=O)[C@H](CO)NC(=O)[C@@H](NC(=O)[C@H](CC(=O)O)NC(=O)[C@H](CO)NC(=O)[C@@H](NC(=O)[C@H](Cc1ccccc1)NC(=O)[C@@H](NC(=O)CNC(=O)[C@H](CCC(=O)O)NC(=O)C(C)(C)NC(=O)[C@@H](N)Cc1c[nH]cn1)[C@@H](C)O)[C@@H](C)O)C(C)C)C(=O)N[C@@H](C)C(=O)N[C@@H](Cc1c[nH]c2ccccc12)C(=O)N[C@@H](CC(C)C)C(=O)N[C@H](C(=O)N[C@@H](CCCNC(=N)N)C(=O)NCC(=O)N[C@@H](CCCCNC(=O)COCCOCCNC(=O)COCCOCCNC(=O)CC[C@H](NC(=O)CCCCCCCCCCOc1ccc(C(=O)O)cc1)C(=O)O)C(=O)N[C@@H](CCCCNC(=O)COCCOCCNC(=O)COCCOCCNC(=O)CC[C@H](NC(=O)CCCCCCCCCCOc1ccc(C(=O)O)cc1)C(=O)O)C(=O)O)C(C)C` [Comparative 8A] registered an IC50 of 0.245 nM. This counts as sub-nanomolar. Same read-out and setting: the result for `CC[C@H](C)[C@H](NC(=O)[C@H](Cc1ccccc1)NC(=O)[C@H](CCC(=O)O)NC(=O)[C@H](CCCNC(=N)N)NC(=O)[C@H](C)NC(=O)[C@H](C)NC(=O)[C@H](CCC(N)=O)NC(=O)[C@H](CCC(=O)O)NC(=O)[C@H](CCC(=O)O)NC(=O)[C@H](CC(C)C)NC(=O)[C@H](Cc1ccc(O)cc1)NC(=O)[C@H](CO)NC(=O)[C@H](CO)NC(=O)[C@@H](NC(=O)[C@H](CC(=O)O)NC(=O)[C@H](CO)NC(=O)[C@@H](NC(=O)[C@H](Cc1ccccc1)NC(=O)[C@@H](NC(=O)CNC(=O)[C@H](CCC(=O)O)NC(=O)[C@H](Cc1c[nH]c2ccccc12)NC(=O)[C@@H](N)Cc1c[nH]cn1)[C@@H](C)O)[C@@H](C)O)C(C)C)C(=O)N[C@@H](C)C(=O)N[C@@H](Cc1c[nH]c2ccccc12)C(=O)N[C@@H](CC(C)C)C(=O)N[C@H](C(=O)N[C@@H](CCCNC(=N)N)C(=O)NCC(=O)N[C@@H](CCCNC(=N)N)C(=O)N[C@@H](CCCCNC(=O)COCCOCCNC(=O)COCCOCCNC(=O)[C@H](CCCCNC(=O)COCCOCCNC(=O)COCCOCCNC(=O)COCCOCCNC(=O)COCCOCCNC(=O)CC[C@H](NC(=O)[C@H]1CC[C@H](CNC(=O)CCCCCCCCCCCCCCCCCCC(=O)O)CC1)C(=O)O)NC(=O)COCCOCCNC(=O)COCCOCCNC(=O)COCCOCCNC(=O)COCCOCCNC(=O)CC[C@H](NC(=O)[C@H]1CC[C@H](CNC(=O)CCCCCCCCCCCCCCCCCCC(=O)O)CC1)C(=O)O)C(=O)O)C(C)C` [Example 12] reads 3.16 nM. Same read-out and setting: under `CC[C@H](C)[C@H](NC(=O)[C@H](Cc1ccccc1)NC(=O)[C@H](CCC(=O)O)NC(=O)[C@H](CCCNC(=N)N)NC(=O)[C@H](C)NC(=O)[C@H](C)NC(=O)[C@H](CCC(N)=O)NC(=O)[C@H](CCC(=O)O)NC(=O)[C@H](CCC(=O)O)NC(=O)[C@H](CC(C)C)NC(=O)[C@H](Cc1ccc(O)cc1)NC(=O)[C@H](CO)NC(=O)[C@H](CO)NC(=O)[C@@H](NC(=O)[C@H](CC(=O)O)NC(=O)[C@H](CO)NC(=O)[C@@H](NC(=O)[C@H](Cc1ccccc1)NC(=O)[C@@H](NC(=O)CNC(=O)[C@H](CCC(=O)O)NC(=O)[C@H](Cc1c[nH]c2ccccc12)NC(=O)[C@@H](N)Cc1c[nH]cn1)[C@@H](C)O)[C@@H](C)O)C(C)C)C(=O)N[C@@H](C)C(=O)N[C@@H](Cc1c[nH]c2ccccc12)C(=O)N[C@@H](CC(C)C)C(=O)N[C@H](C(=O)N[C@@H](CCCNC(=N)N)C(=O)NCC(=O)N[C@@H](CCCNC(=N)N)C(=O)N[C@@H](CCCCNC(=O)COCCOCCNC(=O)COCCOCCNC(=O)CN(CCCNC(=O)COCCOCCNC(=O)COCCOCCNC(=O)COCCOCCNC(=O)COCCOCCNC(=O)CC[C@H](NC(=O)[C@H]1CC[C@H](CNC(=O)CCCCCCCCCCCCCCCCCCC(=O)O)CC1)C(=O)O)CCCNC(=O)COCCOCCNC(=O)COCCOCCNC(=O)COCCOCCNC(=O)COCCOCCNC(=O)CC[C@H](NC(=O)[C@H]1CC[C@H](CNC(=O)CCCCCCCCCCCCCCCCCCC(=O)O)CC1)C(=O)O)C(=O)O)C(C)C` [Example 13] stands 0.818 nM.
